By IC50 is commonly meant the concentration at which inhibition is half-maximal. The EC50 is the midpoint of the concentration-response curve.

In test [1] the target is Neuropeptide Y receptor type 1 (Homo sapiens, UniProt P25929). It is filed as functional.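 Further: HEK293 cells with a CNG channel challenged with NPY then isoproterenol; potency as antagonist that reverses NPY suppression of cAMP signal.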
For test [2], the target named is Neuropeptide Y receptor type 2 (Homo sapiens, UniProt P49146). It is filed as functional, cell-based.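 Further: HEK293 cells expressing the receptor and a CNG channel; stimulus was NPY near EC95 followed by isoproterenol to raise cAMP; antagonist potency measured as restoring cAMP signal that NPY suppresses.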
Neuropeptide Y receptor type 2, sequence (P49146 whole entry): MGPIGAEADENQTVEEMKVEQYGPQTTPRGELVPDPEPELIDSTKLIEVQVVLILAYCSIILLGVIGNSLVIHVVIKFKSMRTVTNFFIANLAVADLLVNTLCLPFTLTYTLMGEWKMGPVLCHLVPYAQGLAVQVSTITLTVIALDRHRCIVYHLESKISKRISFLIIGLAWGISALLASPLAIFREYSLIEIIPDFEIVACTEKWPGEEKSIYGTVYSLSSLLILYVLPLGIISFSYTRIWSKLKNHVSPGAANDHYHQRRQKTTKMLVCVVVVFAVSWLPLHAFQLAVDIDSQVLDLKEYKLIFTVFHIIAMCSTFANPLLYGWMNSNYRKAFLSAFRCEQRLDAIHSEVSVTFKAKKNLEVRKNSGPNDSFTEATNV
In test [3] the target is Diphosphomevalonate decarboxylase (Streptococcus pneumoniae serotype 2 (strain D39 / NCTC 7466), UniProt Q9FD53). Description: diphosphomevalonate decarboxylase inhibitor confirmation – biochemical, cuvette format, coupled NADH fluorescence (AID 1028). It is filed as functional.
Diphosphomevalonate decarboxylase, sequence (Q9FD53 whole entry): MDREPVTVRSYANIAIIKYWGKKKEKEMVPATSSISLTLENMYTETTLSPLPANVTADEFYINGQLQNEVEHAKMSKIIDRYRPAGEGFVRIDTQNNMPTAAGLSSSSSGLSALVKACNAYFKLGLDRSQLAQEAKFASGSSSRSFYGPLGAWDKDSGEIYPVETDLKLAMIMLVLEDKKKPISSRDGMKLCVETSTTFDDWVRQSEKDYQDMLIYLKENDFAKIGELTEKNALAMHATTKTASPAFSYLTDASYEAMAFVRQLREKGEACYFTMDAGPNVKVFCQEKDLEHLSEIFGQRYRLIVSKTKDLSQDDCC
The target in test [4] is T1, Aryl hydrocarbon receptor (Homo sapiens, UniProt P35869).
T1 sequence (P35869 whole entry): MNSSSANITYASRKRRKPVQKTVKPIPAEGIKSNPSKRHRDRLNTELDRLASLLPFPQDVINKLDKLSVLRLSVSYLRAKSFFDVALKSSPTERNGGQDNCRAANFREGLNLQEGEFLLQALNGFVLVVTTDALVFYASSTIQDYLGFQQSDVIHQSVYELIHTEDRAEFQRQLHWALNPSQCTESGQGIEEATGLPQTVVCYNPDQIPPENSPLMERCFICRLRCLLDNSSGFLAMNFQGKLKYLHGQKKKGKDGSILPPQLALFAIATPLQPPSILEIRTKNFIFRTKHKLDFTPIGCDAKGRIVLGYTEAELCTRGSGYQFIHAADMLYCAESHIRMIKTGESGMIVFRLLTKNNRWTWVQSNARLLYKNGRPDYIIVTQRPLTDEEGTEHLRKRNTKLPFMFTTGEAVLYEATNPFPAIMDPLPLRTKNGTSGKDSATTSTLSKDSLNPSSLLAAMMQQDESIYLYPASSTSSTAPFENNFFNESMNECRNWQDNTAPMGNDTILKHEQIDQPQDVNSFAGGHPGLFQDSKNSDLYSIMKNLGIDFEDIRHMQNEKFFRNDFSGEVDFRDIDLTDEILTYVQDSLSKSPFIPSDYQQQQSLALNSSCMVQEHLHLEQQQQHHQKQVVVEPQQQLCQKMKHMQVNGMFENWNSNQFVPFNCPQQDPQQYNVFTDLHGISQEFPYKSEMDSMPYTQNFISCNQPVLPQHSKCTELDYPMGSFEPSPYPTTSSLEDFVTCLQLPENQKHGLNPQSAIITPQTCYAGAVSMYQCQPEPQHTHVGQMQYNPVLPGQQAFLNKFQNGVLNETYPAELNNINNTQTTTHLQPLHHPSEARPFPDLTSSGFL
Description: Luminescence-based cell-based high throughput dose response assay for activators of the Aryl Hydrocarbon Receptor (AHR). [Related pubchem assays: 2796 (Primary screen (AHR activators in singlicate)), 2845 (Confirmation screen (AHR activators in triplicate)), 434939 (Counterscreen (PXR activators in triplicate)), 2804 (Summary (AHR activators))]. It is filed as ADME. For orientation: A counterscreen serves to expose hits that act by an unwanted route or on another target.

Test [5] concerns the target Luciferin 4-monooxygenase (Photinus pyralis, UniProt P08659). Description: inhibition of purified Photinus pyralis luciferase – biochemical, luminescence, dose response (AID 1891).
The nature of test [6]: Luminescence Cell-Based Dose Confirmation HTS to Identify Inhibitors of Platelet Dense Granule Release. [Related pubchem assays: 1663 (Primary HTS), 1678 (Summary of Project)]. It is filed as functional.
The nature of test [7]: Fluorescence Cell-Based Dose Response to Identify Inhibitors of Thrombin Receptor-Activating Peptide SFLLRN-Mediated P-Selectin Induction on Platelets. [Related pubchem assays: 1663 (Primary HTS), 1889 (retest at dose ), 1891 (counterscreen), 1678 (Project Summary)]. It is filed as functional.
For test [8], the target named is Epstein-Barr nuclear antigen 1 (Epstein-Barr virus (strain B95-8) (HHV-4) (Human herpesvirus 4), UniProt P03211). Description: inhibition of EBV nuclear antigen 1 DNA binding – biochemical, fluorescence polarization, 1536-well, dose response (AID 2381).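 Further: fluorescence polarization of a Cy5 DNA probe bound by EBNA-1 protein.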 Further details: species or system human gammaherpesvirus 4. A general note: In fluorescence polarisation assays a small probe gives low polarisation when free and higher when bound to something large.
Epstein-Barr nuclear antigen 1, sequence (P03211 whole entry): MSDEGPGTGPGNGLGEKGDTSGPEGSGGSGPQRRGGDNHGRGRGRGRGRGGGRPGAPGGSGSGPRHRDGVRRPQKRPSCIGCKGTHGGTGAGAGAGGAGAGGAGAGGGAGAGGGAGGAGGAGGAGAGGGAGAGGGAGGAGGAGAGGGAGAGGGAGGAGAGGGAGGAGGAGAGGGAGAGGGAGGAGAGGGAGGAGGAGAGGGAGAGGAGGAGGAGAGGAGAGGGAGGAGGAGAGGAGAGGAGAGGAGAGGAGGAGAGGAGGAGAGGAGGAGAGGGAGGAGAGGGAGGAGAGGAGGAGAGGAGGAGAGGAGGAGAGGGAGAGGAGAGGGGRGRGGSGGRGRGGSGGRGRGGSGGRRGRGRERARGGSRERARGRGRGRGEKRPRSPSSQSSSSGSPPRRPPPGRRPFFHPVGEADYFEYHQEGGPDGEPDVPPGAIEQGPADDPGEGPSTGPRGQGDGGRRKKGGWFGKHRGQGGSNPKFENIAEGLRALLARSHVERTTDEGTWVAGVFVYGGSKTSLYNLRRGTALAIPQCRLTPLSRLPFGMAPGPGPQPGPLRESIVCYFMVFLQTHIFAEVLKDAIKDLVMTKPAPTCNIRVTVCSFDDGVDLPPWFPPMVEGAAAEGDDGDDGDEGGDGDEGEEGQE

Test [9] addresses Lytic switch protein BZLF1 (Epstein-Barr virus (strain B95-8) (HHV-4) (Human herpesvirus 4), UniProt P03206). Description: inhibition of BZLF1 ZTA DNA binding – biochemical, fluorescence polarization, Epstein-Barr virus, 1536-well, counter-screen for EBNA-1 inhibitor project, dose response (AID 2377).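 Further: fluorescence polarization of Cy5-labelled ZRE DNA probe bound by purified Zta.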 Also on record: species or system human gammaherpesvirus 4.
A short description of test [10]: Luminescence Cell-Based Dose Confirmation HTS to Identify Inhibitors of Polyadenylation. It is filed as functional.
The next test has as its target NADPH oxidase 1 (Homo sapiens, UniProt Q9Y5S8). Put plainly: Late-stage luminescence-based cell-based dose response assay to identify inhibitors of NADPH oxidase 1 (NOX1): Purchased analogs 2. It is filed as functional.
Another test addresses T2, Bcl-2-like protein 10 (Homo sapiens, UniProt Q9HD36).
T2 sequence (Q9HD36 whole entry): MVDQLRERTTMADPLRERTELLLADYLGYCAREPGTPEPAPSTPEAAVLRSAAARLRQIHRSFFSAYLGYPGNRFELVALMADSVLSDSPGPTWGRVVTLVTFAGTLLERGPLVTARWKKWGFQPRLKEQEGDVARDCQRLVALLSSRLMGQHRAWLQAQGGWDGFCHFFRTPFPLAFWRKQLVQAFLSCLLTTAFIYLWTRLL
Put plainly: Bcl-B/TR3 peptide binding disruption – biochemical, fluorescence polarization, FITC-TR3 peptide, selectivity assay for Bfl-1 inhibitor project, primary screen (AID 748).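 Further: fluorescence polarization from a fluorescein-labelled TR3 peptide binding purified Bcl-B.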

Test [11] addresses T3, SUMO-activating enzyme (Homo sapiens, UniProt Q9UBT2). Description: blockers of UBC9-mediated SUMO conjugation – biochemical, AlphaScreen, SUMOylation inhibitor project, confirmation (AID 2018). It is filed as functional. (Alpha assays give light when donor and acceptor beads are brought close together.)
The target of test [12] is T3, SUMO-activating enzyme. Description: blockers of SAE1/SAE2–UBC9 SUMO transfer – biochemical, HTRF, uHTS, primary screen (AID 2006). It is filed as protein-complex assay.
Test [13] deals with Induced myeloid leukemia cell differentiation protein Mcl-1 (Homo sapiens, UniProt Q07820). Description: blockers of MCL1 binding to BIM peptide – biochemical, fluorescence polarization, BIM-BH3 peptide, 1536-well, dose response (AID 2217).
For test [14], the target named is T4, Estrogen receptor beta (Homo sapiens, UniProt Q92731).
T4 sequence (Q92731 whole entry): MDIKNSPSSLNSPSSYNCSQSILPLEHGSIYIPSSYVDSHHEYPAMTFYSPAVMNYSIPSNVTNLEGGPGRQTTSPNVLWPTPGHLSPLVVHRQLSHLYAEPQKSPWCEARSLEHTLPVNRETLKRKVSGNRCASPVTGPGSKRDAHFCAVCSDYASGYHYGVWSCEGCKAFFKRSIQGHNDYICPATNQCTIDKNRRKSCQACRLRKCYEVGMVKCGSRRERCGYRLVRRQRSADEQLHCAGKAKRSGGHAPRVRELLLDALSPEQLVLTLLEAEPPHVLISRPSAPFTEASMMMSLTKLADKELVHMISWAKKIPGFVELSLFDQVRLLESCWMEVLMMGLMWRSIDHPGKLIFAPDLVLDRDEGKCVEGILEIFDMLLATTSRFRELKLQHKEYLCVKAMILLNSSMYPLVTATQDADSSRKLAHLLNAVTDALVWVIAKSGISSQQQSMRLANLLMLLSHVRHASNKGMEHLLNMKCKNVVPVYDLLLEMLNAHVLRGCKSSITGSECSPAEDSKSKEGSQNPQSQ
For test [15], the target named is T4, Estrogen receptor beta. Description: blockers of SRC-3 recruitment to ERβ – biochemical, ELISA, streptavidin-HRP readout, orthogonal assay, confirmation (AID 1060).
Another test addresses Bcl-2-like protein 1 (Homo sapiens, UniProt Q07817). Put plainly: blockers of BCLXL peptide binding – biochemical, fluorescence polarization, 1536-well, selectivity assay for MCL1 inhibitor project, dose response (AID 2218).

Structures are written as SMILES. Active and inactive are the calls of the source. A value given as a limit tells only on which side of the number the result lay.

T3 sequence (Q9UBE0 whole entry): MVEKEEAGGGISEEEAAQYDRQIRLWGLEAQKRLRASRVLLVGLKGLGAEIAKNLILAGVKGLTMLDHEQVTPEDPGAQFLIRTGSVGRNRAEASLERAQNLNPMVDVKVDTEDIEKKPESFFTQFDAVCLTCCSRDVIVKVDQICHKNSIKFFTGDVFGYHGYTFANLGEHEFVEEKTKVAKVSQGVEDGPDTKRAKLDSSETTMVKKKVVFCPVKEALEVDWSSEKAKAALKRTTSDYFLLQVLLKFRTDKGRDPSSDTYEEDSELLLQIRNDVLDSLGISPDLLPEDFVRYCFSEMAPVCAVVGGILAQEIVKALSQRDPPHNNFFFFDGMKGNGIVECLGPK
T3 sequence (Q9UBT2 whole entry): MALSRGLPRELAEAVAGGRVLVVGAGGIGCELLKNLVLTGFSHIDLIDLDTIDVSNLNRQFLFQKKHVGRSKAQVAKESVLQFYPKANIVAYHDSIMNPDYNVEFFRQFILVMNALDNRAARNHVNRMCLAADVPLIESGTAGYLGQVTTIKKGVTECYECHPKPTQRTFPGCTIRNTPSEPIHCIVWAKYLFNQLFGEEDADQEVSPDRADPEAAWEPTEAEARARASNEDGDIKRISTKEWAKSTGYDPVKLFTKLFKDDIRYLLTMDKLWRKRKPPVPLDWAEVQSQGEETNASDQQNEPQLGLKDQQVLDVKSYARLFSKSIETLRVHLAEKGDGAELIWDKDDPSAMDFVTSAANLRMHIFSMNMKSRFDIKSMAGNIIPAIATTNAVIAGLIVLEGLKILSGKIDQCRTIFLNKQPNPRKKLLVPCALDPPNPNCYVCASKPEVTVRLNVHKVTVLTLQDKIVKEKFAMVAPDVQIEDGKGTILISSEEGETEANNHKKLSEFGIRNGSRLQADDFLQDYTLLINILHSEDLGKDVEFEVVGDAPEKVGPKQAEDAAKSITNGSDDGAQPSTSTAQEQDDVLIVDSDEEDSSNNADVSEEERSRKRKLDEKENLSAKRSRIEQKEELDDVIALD
Neuropeptide Y receptor type 1, sequence (P25929 whole entry): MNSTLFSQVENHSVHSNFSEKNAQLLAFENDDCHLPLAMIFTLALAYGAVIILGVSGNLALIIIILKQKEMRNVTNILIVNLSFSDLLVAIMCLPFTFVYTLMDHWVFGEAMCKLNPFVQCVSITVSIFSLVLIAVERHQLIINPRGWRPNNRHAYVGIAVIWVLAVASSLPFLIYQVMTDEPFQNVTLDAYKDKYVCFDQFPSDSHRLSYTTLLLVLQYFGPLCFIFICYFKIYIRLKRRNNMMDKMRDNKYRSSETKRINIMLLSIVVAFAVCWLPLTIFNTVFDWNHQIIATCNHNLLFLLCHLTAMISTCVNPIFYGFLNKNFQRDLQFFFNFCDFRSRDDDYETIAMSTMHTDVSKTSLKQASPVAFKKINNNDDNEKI
Bcl-2-like protein 1, sequence (Q07817 whole entry): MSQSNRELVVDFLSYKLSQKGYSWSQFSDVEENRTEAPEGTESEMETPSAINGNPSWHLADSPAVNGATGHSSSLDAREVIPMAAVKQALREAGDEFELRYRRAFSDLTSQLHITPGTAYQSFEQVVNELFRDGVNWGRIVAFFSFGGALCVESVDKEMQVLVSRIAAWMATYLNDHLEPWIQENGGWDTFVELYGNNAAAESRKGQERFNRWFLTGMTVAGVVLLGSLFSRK
Luciferin 4-monooxygenase, sequence (P08659 whole entry): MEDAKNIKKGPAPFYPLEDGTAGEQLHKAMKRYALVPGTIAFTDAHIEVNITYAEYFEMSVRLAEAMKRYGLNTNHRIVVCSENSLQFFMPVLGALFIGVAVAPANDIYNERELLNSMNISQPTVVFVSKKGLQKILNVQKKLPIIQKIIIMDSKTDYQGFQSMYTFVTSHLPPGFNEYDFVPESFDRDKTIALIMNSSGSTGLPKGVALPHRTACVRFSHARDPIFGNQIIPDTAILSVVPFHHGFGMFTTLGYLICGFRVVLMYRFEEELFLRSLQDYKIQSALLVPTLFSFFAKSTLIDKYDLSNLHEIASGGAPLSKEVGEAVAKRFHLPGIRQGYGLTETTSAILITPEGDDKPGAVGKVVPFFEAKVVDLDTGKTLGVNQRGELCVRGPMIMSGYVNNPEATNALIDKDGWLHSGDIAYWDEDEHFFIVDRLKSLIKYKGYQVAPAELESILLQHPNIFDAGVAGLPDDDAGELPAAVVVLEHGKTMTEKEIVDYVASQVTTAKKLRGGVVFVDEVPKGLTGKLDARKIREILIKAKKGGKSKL
Lytic switch protein BZLF1, sequence (P03206 whole entry): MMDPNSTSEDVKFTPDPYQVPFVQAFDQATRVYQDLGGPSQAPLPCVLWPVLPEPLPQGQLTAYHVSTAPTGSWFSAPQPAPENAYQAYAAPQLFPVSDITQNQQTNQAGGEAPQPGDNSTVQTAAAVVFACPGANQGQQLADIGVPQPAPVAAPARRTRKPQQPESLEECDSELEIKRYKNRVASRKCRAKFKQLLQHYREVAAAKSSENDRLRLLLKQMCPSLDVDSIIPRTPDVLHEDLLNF
NADPH oxidase 1, sequence (Q9Y5S8 whole entry): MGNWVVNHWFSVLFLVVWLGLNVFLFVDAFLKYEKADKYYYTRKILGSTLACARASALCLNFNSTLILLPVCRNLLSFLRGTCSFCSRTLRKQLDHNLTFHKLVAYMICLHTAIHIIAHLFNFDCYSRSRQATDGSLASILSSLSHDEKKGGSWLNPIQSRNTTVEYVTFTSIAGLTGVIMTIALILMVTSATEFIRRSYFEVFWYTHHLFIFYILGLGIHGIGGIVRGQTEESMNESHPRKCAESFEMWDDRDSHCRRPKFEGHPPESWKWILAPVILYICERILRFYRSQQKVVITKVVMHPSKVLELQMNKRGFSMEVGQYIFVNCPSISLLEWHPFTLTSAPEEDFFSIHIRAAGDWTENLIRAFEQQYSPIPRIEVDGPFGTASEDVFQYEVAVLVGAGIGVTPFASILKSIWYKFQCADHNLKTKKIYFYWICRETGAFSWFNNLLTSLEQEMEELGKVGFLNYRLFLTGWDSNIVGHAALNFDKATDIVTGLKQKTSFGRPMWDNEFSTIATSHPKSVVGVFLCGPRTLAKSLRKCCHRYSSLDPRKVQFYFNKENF

In the case of `CCc1cccc(CC)c1NC(=O)COC(=O)c1ccccc1-c1nc2ccccc2s1`, the figures for the IC50 in test [1] and in [2] were 5.77 µM (active) and 17.3 µM (not active), respectively.
Regarding `CCCN(CCC)C(=O)c1cccc(-n2sc3ccccc3c2=O)c1`, in test [3], the IC50 was 18.1 µM (active).
As to `CSc1ncc(C(=O)Nc2ccc(Cl)cc2)c(C)n1`, the half-maximal effective concentration (EC50) in [4] was 22.2 nM (active).
As for `COc1cc2c(cc1OC)-c1cc(Nc3ccc(F)cc3)nc(=O)n1CC2`, the EC50 is > 112 µM (not active) in test [5], 1.82 µM (active) in test [6] and < 300 nM (active) in test [7].
As to `Nc1c(C(=O)Nc2ccc3c(c2)OCCO3)nnn1Cc1cccc(F)c1`, the IC50 in [8] is 13.7 µM (not active); in test [9] it was > 111 µM (not active).
`Cc1nc2ccc(C(=O)NCc3ccc4c(c3)OCO4)cc2s1`: the EC50 in test [10] is given as > 120 µM (not active).
For `S=C(NNC(=S)Nc1ccc(Cl)cc1)Nc1ccccc1`, the IC50 on NADPH oxidase 1 was 725 nM (active).
On to `O=c1nc2s/c(=C\c3ccco3)c(=O)n2nc1Cc1ccc(F)cc1`, for which the IC50 at Bcl-2-like protein 10 is 14.7 µM (active); on SUMO-activating enzyme [11] it was 7.36 µM (active); on SUMO-activating enzyme [12], 38.3 µM (active); in test [13], > 109 µM (not active); at Estrogen receptor beta [14] it was 2.35 µM (active); against Estrogen receptor beta [15], 987 nM (not active). Moreover, the IC50 at Bcl-2-like protein 1 is listed as > 109 µM (not active).
